Source: patent publication CN114306288A, “一种卡巴拉汀长效经皮吸收贴剂及其制备方法” (priority 2022, dated 2022)

Assay: In vitro transdermal permeation test (Franz horizontal two-chamber diffusion cell, pig ear skin)
Type: in vitro ADME
Details: Examples 33-38, compared with no enhancer; 0.1 g enhancer, 1 mmol rivastigmine salicylate ionic liquid in 2 g adhesive (Example 10); result in words

SMILES: CCCCCCCC/C=C\CCCCCCCC(=O)O [油酸]
- promotion of rivastigmine cumulative permeation amount by transdermal absorption enhancer: 没有显著促进

SMILES: CC1CCC(C(C)C)C(O)C1 (centres unmarked) [薄荷醇]
- promotion of rivastigmine cumulative permeation amount by transdermal absorption enhancer: 没有显著促进
